In patent publication US20190202836A1, “SELECTIVE DUAL INHIBITORS OF PI3 DELTA AND GAMMA PROTEIN KINASES” (Rhizen Pharmaceuticals SA, priority 2014, published 2019):

Assays:
[1] = system: T-lymphoma (MOLT-4, Jurkat, CCRF-CEM, Hut-78 and HuT-102) cells; experiment: Assay 2: In vitro cell proliferation assay in leukemic cell lines (MTT); format: cell-based
Description: Growth inhibition assays were carried out using 10% FBS supplemented media. Cells were seeded at a concentration of 5000-20,000 cells/well in a 96-well plate. Test compounds at a concentration ranging from 0.01 to 10000 nM were added after 24 hours. Growth was assessed using the 3-[4,5-dimethylthiazol-2-yl]-2,5-diphenyltetrazolium bromide (MTT) dye reduction test at 0 hour (prior to the addition of the test compound) and 72 hours after the addition of test compound. Absorbance was read on a Fluostar Optima (BMG Labtech, Germany) at a wavelength of 450 nm. Data were analysed using GraphPad Prism and percent inhibition due to the test compound compared to the control was calculated accordingly.

PI3Kδ [2] = molecular target: T1, PI3Kδ (Homo sapiens, UniProt O00329); experiment: Assay 1: Fluorescent (HTRF) determination of PI3 kinase enzyme activity, PI3Kδ; format: biochemical
T1 sequence (O00329 whole entry, canonical isoform): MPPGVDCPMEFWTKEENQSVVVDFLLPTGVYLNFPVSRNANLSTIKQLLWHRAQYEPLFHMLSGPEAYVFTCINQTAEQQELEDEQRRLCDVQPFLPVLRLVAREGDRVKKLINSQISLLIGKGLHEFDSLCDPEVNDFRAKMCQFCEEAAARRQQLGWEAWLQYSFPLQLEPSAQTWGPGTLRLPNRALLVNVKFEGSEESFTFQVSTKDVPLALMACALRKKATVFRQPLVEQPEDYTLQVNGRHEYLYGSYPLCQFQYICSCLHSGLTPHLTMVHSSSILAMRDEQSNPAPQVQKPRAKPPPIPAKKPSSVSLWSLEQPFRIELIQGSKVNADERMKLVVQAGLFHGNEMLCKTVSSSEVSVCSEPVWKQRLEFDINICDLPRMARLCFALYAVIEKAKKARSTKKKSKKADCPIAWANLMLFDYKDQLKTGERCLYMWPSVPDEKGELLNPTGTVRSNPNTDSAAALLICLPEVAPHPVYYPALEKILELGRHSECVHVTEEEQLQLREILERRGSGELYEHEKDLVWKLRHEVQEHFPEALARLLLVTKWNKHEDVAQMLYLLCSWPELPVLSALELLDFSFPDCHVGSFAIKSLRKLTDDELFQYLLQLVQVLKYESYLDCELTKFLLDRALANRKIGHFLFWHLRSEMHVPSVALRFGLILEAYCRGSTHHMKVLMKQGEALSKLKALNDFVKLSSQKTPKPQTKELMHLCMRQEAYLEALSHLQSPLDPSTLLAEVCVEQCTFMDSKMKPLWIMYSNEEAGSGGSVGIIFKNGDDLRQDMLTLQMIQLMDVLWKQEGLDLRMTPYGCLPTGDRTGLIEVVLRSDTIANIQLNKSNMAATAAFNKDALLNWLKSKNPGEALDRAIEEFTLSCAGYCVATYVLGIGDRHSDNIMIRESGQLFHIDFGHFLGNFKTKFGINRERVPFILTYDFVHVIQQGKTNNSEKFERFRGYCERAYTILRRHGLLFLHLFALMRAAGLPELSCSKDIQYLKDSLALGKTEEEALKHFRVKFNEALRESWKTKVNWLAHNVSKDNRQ
T1 sequence (P27986 whole entry partner, canonical isoform): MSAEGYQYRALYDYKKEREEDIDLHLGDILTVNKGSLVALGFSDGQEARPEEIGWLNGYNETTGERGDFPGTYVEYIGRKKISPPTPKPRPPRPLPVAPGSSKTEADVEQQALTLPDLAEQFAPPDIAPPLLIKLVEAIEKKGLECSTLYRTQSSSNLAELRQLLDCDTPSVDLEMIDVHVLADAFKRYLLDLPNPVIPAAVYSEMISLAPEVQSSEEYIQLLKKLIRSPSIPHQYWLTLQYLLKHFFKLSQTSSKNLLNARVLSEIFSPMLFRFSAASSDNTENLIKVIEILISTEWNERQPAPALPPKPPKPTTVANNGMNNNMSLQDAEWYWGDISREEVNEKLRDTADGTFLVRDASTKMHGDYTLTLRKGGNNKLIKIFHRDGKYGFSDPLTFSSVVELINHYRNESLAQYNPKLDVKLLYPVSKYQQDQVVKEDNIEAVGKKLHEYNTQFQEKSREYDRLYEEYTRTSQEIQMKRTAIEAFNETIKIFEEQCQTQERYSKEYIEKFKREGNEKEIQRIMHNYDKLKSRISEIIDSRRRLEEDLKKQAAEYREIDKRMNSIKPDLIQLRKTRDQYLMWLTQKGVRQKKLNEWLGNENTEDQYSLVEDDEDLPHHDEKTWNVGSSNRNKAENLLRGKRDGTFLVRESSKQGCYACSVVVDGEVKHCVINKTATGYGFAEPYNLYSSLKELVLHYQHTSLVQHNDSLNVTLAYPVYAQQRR
Text: (§1) Phosphoinositide 3 kinases (PI3K) belong to a class of lipid kinases that play a critical role in the regulation of several key cellular processes. The PI3K are capable of phosphorylating the 3-hydroxy position of phosphoinositols thereby generating second messengers involved in downstream signaling events. The homogenous time resolved fluorescence (HTRF) assay allows detection of 3,4,5-triphosphate (PIPS) formed as a result of phosphorylation of phosphotidylinositol 4,5-biphosphate (PIP2) by PI3K isoforms such as α, β, γ or δ.
(§2) PI3K isoform activity for α, β, γ or δ was determined using a PI3K human HTRF™ Assay Kit (Millipore, Billerica, Mass.) with modifications. All incubations were carried out at room temperature. 0.5 μl of 40× inhibitor (in 100% DMSO) or 100% DMSO were added to each well of a 384-well white plate (Greiner Bio-One, Monroe, N.C.) containing 14.5 μl 1× reaction buffer/PIP2 (10 mM MgCl2, 5 mM DTT, 1.38 μM PIP2) mix with or without enzyme, followed by 5 μl/well of 400 μM ATP and incubated for an additional 30 minutes. The reaction was terminated by adding 5 μl/well stop solution (Millipore, Billerica, Mass.). 5 μl of detection mix (Millipore, Billerica, Mass.) was then added to each well and incubated for 6-18 hours in the dark. HRTF ratio was measured on a microplate reader (BMG Labtech., Germany) at an excitation wavelength of 337 nm and emission wavelengths of 665 and 615 nm with an integration time of 400 msec counting delay of 50 msec.

PI3Kα = PI3Kα (Homo sapiens, UniProt P42336); experiment: Assay 1: Fluorescent (HTRF) determination of PI3 kinase enzyme activity, PI3Kα; format: biochemical
PI3Kα, sequence (P42336 whole entry): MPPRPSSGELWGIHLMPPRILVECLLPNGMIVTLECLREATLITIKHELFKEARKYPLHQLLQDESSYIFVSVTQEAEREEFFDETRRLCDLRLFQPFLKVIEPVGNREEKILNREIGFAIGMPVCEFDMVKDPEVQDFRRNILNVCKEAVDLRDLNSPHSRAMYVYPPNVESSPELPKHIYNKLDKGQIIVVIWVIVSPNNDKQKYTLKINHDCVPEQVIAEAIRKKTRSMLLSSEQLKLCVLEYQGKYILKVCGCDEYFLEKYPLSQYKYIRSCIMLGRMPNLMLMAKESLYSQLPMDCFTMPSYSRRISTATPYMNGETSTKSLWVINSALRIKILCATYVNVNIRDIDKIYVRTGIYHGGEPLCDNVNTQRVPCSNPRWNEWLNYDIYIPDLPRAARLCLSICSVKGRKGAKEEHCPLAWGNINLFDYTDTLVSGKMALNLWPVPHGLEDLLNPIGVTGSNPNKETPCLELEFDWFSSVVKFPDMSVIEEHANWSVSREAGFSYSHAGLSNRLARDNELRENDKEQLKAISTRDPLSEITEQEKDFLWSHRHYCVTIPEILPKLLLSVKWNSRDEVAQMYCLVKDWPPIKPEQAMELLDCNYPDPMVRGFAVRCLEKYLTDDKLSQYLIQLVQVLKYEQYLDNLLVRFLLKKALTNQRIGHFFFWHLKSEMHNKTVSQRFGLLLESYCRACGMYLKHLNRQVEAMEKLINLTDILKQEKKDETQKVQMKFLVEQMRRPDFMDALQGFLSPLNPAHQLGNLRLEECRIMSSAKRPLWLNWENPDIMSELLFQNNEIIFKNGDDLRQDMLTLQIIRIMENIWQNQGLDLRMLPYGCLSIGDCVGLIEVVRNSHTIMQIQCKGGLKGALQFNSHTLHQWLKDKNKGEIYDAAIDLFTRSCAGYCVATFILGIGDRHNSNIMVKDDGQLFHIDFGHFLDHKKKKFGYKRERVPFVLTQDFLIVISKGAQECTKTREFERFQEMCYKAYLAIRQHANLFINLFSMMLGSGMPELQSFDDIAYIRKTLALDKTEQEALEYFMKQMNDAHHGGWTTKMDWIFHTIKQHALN
PI3Kα, sequence (P27986 whole entry partner): as the sequence (P27986 whole entry partner, canonical isoform) above
Text: as §1, §2

[3] = Metabolic stability in rat liver microsomes; format: in vitro ADME; conditions: 1 μM test item, 60 minutes, 37° C., NADPH
Description: Metabolic stability studies were conducted on Compounds A, A1, and A2 as well as Example 128 of WO 2012/151525 using mouse, rat, dog, monkey, and human liver microsomes. The protocol for the studies with mouse, rat, and human liver microsomes (all from BD Gentest, USA) is provided below. 0.4 mg protein was preincubated with 2 mM NADPH (cofactor) in phosphate buffer (pH-7.4) for 15 minutes at 37° C. and then added with 1 μM test item and incubated further for 60 minutes in triplicate. The reaction mixture was terminated with methanol containing an internal standard and centrifuged further to analyze the test item remaining in the supernatant by LC-MS/MS. The percent parent compound remaining was calculated in comparison with similar samples terminated at 0 minutes.

[4] = system: pAKT in T-lymphoma (MOLT-4, Jurkat, CCRF-CEM and Hut-78) cell lines; experiment: Assay 3: Inhibition of AKT phosphorylation in leukemic cell lines; format: cell-based; conditions: 48 hours, Western Blotting, range over the cell lines, read-out: EC50, reduction in pAKT expression
Description: MOLT-4, Jurkat, CCRF-CEM, and Hut-78 cells were incubated with desired concentrations of compound for 48 hours. Cells were lysed and pAKT determined by Western Blotting. Bands were quantified using ImageJ and normalized to actin.

PI3Kδ [5] = molecular target: T1, PI3Kδ; experiment: Assay 4: anti-FcεR1 induced CD63 expression in basophils from human whole blood; format: cell-based; design: endogenous in cells; host or cells: basophils in human whole blood; conditions: n=1, read-out: EC50 for FcεR1 (PI3K δ), CD63 positive basophils
Description: PI3K δ and γ signaling in basophils manifested by an alteration of anti-FcεR1 or fMLP induced CD63 expression is a useful pharmacodynamic marker determined using the Flow2CAST® kit (Buhlmann Laboratories, Switzerland). The test procedure involves the following steps: • Mix the anti-coagulated blood sample by inverting the venipuncture tube several times; • Prepare fresh and pyrogen-free 3.5 ml polypropylene or polystyrene tubes suitable for Flow Cytometry measurements; • Add 49 μl of patient's whole blood to each tube; • Add 1 μl of 10% DMSO (background) or test compound (10% DMSO) to the assigned tubes and mix gently. Incubate at room temperature for 15 minutes; • Pipet 50 μl of the Stimulation buffer (background) or anti-FcεRI Ab or fMLP to each tube; • Add 100 μl of Stimulation Buffer to each tube; • Mix gently. Add 20 μl Staining Reagent (1:1 mix of FITC-CD63 and PE-CCR3) to each tube; • Mix gently, cover the tubes and incubate for 15 minutes at 37° C. in a water bath. […]
Percent CD63 positive cells within the gated basophil population were determined in different treatment groups and normalized to vehicle control.

## COc1ccc(-c2nn([C@@H](C)c3oc4cccc(F)c4c(=O)c3-c3cccc(F)c3)c3ncnc(N)c23)cc1NS(C)(=O)=O [Compound A1, (S)—N-(5-(4-amino-1-(1-(5-fluoro-3-(3-fluorophenyl)-4-oxo-4H-chromen-2-yl)ethyl)-1H-pyrazolo[3,4-d]pyrimidin-3-yl)-2-methoxyphenyl)methanesulfonamide]
[1]; MOLT-4, Jurkat, CCRF-CEM, Hut-78 and HuT-102, MTT, 72 hours, range over the cell lines, read-out: GI50, reduction in T-lymphoma cell viability
  GI50: 2500 to 12800 nM
[1]; T-lymphoma cell lines, 72 hour incubation
  cytotoxicity over the 72 hour incubation period: did not display any apparent cytotoxicity
PI3Kδ [2]
  IC50: 30.5 nM
PI3Kα
  inhibition at 10 µM: 23%
PI3Kα; HTRF enzyme assay
  IC50: > 10000 nM
PI3Kα; selectivity profile, enzyme IC50
  Fold-Selectivity PI3Kα: >329 fold
[3]
  Metabolic stability in liver microsomes (percent parent compound remaining), Rat: 94.2%
[4]
  EC50: 20 to 1600 nM
PI3Kδ [5]
  EC50: < 30 nM
